From US20100047841A1, “SYNTHESIS OF DESACETOXYTUBULYSIN H AND ANALOGS THEREOF” (University of Pittsburgh-of the Commonwealth System of …, priority 2007, published 2010)
Where two headings read alike, the source gives them in different places.

Legend:
[1] = test system: bovine brain tubulin; assay: Inhibition of GTP-induced tubulin assembly (turbidimetry at 350 nm); assay type: biochemical; conditions: after 20 min at 30° C., 10 μM bovine brain tubulin, 0.8 M monosodium glutamate
Description: Bovine brain tubulin was isolated to electrophoretic homogeneity from fresh brains via methodology described by Hamel and Lin, Biochemistry 23: 4173-84 (1984). Tubulin (final concentration 10 μM; 1 mg/mL) was preincubated with test agents dissolved in DMSO (4% v/v final concentration) and monosodium glutamate (0.8 M final concentration, pH 6.6) for 15 minutes at 30° C. The reaction mixture was cooled to 0° C., and GTP (0.4 mM final concentration) was added. Reaction mixtures were transferred to cuvettes held at 2.5° C. in a Beckmann DU 7400 multichannel, temperature-controlled (Peltier unit) spectrophotometer, reading absorbance (turbidity) at 350 nm in each cuvette every 15 seconds. Baselines were established and temperature was quickly raised to 30° C. (in approximately 1 minute). After 20 minutes, the temperature was returned to 2.5° C. The turbidity value after 20 minutes at 30° C. for GTP alone was assigned as 100% assembly, and for DMSO alone as 0% assembly. The IC50 was calculated by linear regression of the percent assembly values at the same time point obtained with 0.625, 1.25, 2.5, 5, 10 and 20 μM test agent. In experiments to test for disassembly of preformed tubulin polymer, the test agent was added after 7 minutes of GTP-induced assembly.

[2] = test system: T98G human glioblastoma cell line; assay: Antiproliferative assay (MTS), GI50 in T98G cells; assay type: cell-based
Excerpt: General methods are known for determining the effect of compounds on proliferation of cells. See, e.g., Zhu et al., J. Med. Chem., 2006, 49, 2063-2076. Cells can be selected by one of skill in the art and can be maintained as exponentially growing cultures in a suitable medium (e.g., RPMI 1640 medium) with adjuvents, including FBS, penicillin, and glutamine, provided at levels known to those skilled in this field. For human cancer cells, e.g., human glioblastoma cell line T98G, the cells can be trypsinized and washed prior to formation of a cell suspension in appropriate buffer and plating of the cell suspension. Typical microtiter plate amounts can be 500-2000 cells/well. The cells can be allowed to attach and grow for a defined time period (e.g., 36 hours, 72 hours, 96 hours, or other defined period) before treatment with either vehicle (e.g., dimethylsulfoxide) or test agent (e.g., compound of the invention) followed by an additional defined time period (e.g., 36 hrs, 72 hrs, 96 hrs, and the like). At the end of the additional defined time period, viability of the cells can be determined by any of a variety of methods known in the art, including assays employing MTS (3-(4,5-dimethylthiazol-2-yl)-5-(3-carboxymethoxyphenyl)-2-(4-sulfophenyl)-2H-tetrazolium), as described by -Cory et al., Cancer Commun., 1991, 3, 207-212. […] Replicates are typically assayed to allow determination of appropriate statistical properties as known in the art.
Compounds of the invention with structures of Formulae Xa, XVb, and XVa were assayed for inhibition of growth of the T98G human glioblastoma cell line (Table II).
Human glioblastoma T98G cells (American Type Culture Collection, Manassas, Va.) were maintained as exponentially growing cultures in an RPMI 1640 medium with 10% FBS, 1% penicillin and 1% glutamine. The cells were seeded into 96-well plates and allowed to attach and grow for 48 hours. One plate of cells was used for a time zero cell number determination (N=16), and cells in other plates were treated for 72 hours or 96 hours with either DMSO (1% v/v; N=8 for each plate) or a range of concentrations, in quadruplicate, of test agents. Cell number was determined spectrophotometrically at 490 nm minus absorbance at 630 nm after exposure to 3-(4,5-dimethylthiazol-2-yl)-5-(3-carboxymethoxyphenyl)-2-(4-sulfophenyl)-2H-tetrazolium (MTS) and N-methylphenazine methylsulfate. The fifty percent growth inhibitory concentrations (GI50) of test agents were calculated from the spectrophotometrically determined growth of the control cells over the 72- or 96-hour period.

[3] = test system: bovine brain tubulin (peptide/depsipeptide site); assay: Inhibition of [3H]dolastatin 10 binding to tubulin (centrifugal gel filtration); conditions: 10 μM radiotracer, 10 μM tubulin; for % Inhibition of [3H]dolastatin 10 binding by 5 μM test agent: 30 min room temperature
Description: (§1) The new compounds were tested for their abilities to bind at the vinca domain and at the related peptide/depsipeptide site on tubulin using a modification of a centrifugal gel filtration method described by Bai et al., Mol. Pharmacol. 7: 965-76 (1995). In the initial screens, each 0.32 mL reaction mixture contained 5 μM test agent and 10 μM [^3H]vinblastine (specific activity 8.50 Ci/mmol; GE Healthcare Bio-Sciences, Picataway, N.J.) or 10 μM [^3H]dolastatin 10 (specific activity 1.96 Ci/mmol; obtained from the Drug Synthesis and Chemistry Branch of the National Cancer Institute) predissolved in DMSO (final concentration 1% v/v) and 10 μM bovine brain tubulin, all in 0.1 M 2-(4-morpholino)ethanesulfonic acid (Mes), pH 6.9, containing 0.5 mM MgCl2. The mixture was incubated for 30 min at room temperature. Two 0.15 mL aliquots of the reaction mixture were applied to duplicate 2 mL beds of pre-swollen (in Mes, pH 6.9, containing 0.5 mM MgCl2) Sephadex G-50 (superfine) contained in Handee columns (Pierce Biotechnology, Rockford, Ill.). The columns were centrifuged at 800×g for 4 minutes and the protein concentration in the effluent was determined, using the bicinchoninic acid assay. The amount of radiolabeled ligand bound to tubulin was determined using scintillation spectrometry. Each value represents the mean ±SD of four determinations. […] Inhibition was calculated as the percent difference relative to that of the control incubation with DMSO (i.e., without test agent—assigned as 0% inhibition). […] GraphPad Prism was used to fit the resulting data to the Hill equation to determine the IC50 values.

[4] = test system: HeLa human cervical carcinoma cells; assay: High-content analysis of mitotic arrest in HeLa cells; assay type: cell-based; conditions: for Microtubule Density MDEC (minimum detectable effective concentration) / Mitotic Index MDEC (percentage of phosphohistone H3-positive cells) / Nuclear Condensation MDEC (minimum detectable effective concentration) / EC50: 20 hours treatment, average of four experiments ± SD; for EC50: Homo sapiens, read-out: Cell Density EC50; for activity in high-content analysis of mitotic arrest (in words): all endpoints measured
Description: The effects of tubulysin analogs on mitotic arrest and cellular microtubules were studied. HeLa human cervical carcinoma cells (10,000 per well) were plated in collagen-1 coated 384-well microplates and were treated with vehicle (DMSO) or ten two-fold concentration gradients of test agents within 4-6 hours of seeding. Cells were incubated for 20 hours at 37° C., fixed with formaldehyde, and labeled with 10 μg/mL Hoechst 33342 in Hank's balanced salt solution (HBSS). Cells were permeabilized with 0.5% (w/w) Triton X-100 for 5 min at room temperature and incubated with a primary antibody cocktail consisting of an HBSS solution containing rabbit polyclonal anti-phosphohistone H3 (Ser10, 1:500, Upstate), and mouse monoclonal anti-α-tubulin (1:3000, Sigma), followed by a mixture of FITC-labeled donkey anti-mouse IgG (1:500) and Cy3-labeled donkey anti-rabbit IgG (1:500). Cells were rinsed once with HBSS and stored at 4° C. in HBSS until analysis.
Microplates were analyzed with an ArrayScanII instrument (Cellomics, Pittsburgh, Pa.) using the Target Activation Bioapplication (Cellomics, Inc.). Within the application, 1,000 individual cells in each well were imaged at three different wavelengths, using an Omega XF93 filter set at excitation/emission wavelengths of 350/461 nm (Hoechst), 494/519 nm (FITC), and 556/573 nm (Cy3). The following parameters were used for data analysis: average nuclear intensity, nuclei per field, average nuclear FITC intensity, and average nuclear Cy3 intensity. A nuclear mask was generated from Hoechst 33342-stained nuclei. Microtubule density and histone H3 phosphorylation were measured in the FITC and Cy3 channel, respectively. Microtubule density was defined as the average green (FITC) pixel intensity in an area defined by the nuclear mask. For determination of mitotic index and nuclear condensation, thresholds for Hoechst 33342 and phosphohistone-H3 intensities were defined as the average Hoechst 33342 or Cy3 intensity plus one standard deviation from twenty-eight vehicle-treated wells placed in the center of the microplate.
Cells were classified as positive if their average Hoechst 33342 or Cy3 intensity exceeded this threshold. To illustrate visually the effects of test agents on cellular microtubules and mitotic arrest, the identical 384-well plates then were used to acquire higher resolution images of selected wells.
Asynchronously growing HeLa cells were treated for 20 hours with each compound in collagen-coated 384 well microplates, fixed, and incubated with primary antibodies for tubulin and the mitotic marker protein phosphohistone H3, followed by FITC and Cy3-conjugated secondary antibodies, respectively. Cells were detected by nuclear counterstaining with Hoechst 33342, which also provided information about chromatin condensation and cell density as markers of cell death.

[5] = test system: bovine brain tubulin (vinca domain); assay: Inhibition of [3H]vinblastine binding to tubulin (centrifugal gel filtration); conditions: 10 μM radiotracer, 10 μM tubulin; for % Inhibition of [3H]vinblastine binding by 5 μM test agent: 30 min room temperature; for IC50: test agent 0.5-100 μM, Hill fit
Description: as §1

[6] = test system: bovine brain tubulin (vinca domain); assay: as above; conditions: 50 μM test agent
[7] = Homo sapiens, T98G, 72 h (value in parentheses), ±SD, n = 4, Table IV, read-out: GI50 at (72 h) in T98 glioblastoma cells
[8] = Homo sapiens, T98G, 96 h, ±SD, n = 4, Table IV, read-out: GI50 at 96 h in T98 glioblastoma cells

Row | Structure (SMILES) | IC50 [1] [nM] | GI50 [2, 7] [nM] | GI50 [2, 8] [nM] | % Inhibition of [3H]dolastatin 10 binding by 5 μM test agent [3] [%] | GI50 ([2]; Homo sapiens, T98G cells, 72 h exposure, Table II, read-out: GI50 in T98G cell, 72 h) [nM] | GI50 ([2]; Homo sapiens, T98G cells, 96 h exposure, Table II, read-out: GI50 in T98G cell, 96 h) [nM] | GI50 ([2]; Homo sapiens, T98G cells, after 72 hrs exposure, read-out: GI50) [nM] | Microtubule Density MDEC (minimum detectable effective concentration) [4] [nM] | Mitotic Index MDEC (percentage of phosphohistone H3-positive cells) [4] [nM] | Nuclear Condensation MDEC (minimum detectable effective concentration) [4] [nM] | EC50 [4] [nM] | activity in high-content analysis of mitotic arrest (in words) [4] | % Inhibition of [3H]vinblastine binding by 5 μM test agent [5] [%] | IC50 [5] [nM] | GI50 ([2]; 72 h (value in parentheses), ±SD, n = 4, Table IV, read-out: GI50 at (72 h) in T98 glioblastoma cells) [nM] | GI50 ([2]; 96 h, ±SD, n = 4, Table IV, read-out: GI50 at 96 h in T98 glioblastoma cells) [nM] | % Inhibition of [3H]vinblastine binding @50 μM [6] | IC50 ([3]; test agent 0.5-100 μM, Hill fit) [nM]
1 | CC[C@]1(O)C[C@@H]2CN(CCc3c([nH]c4ccccc34)[C@@](C(=O)OC)(c3cc4c(cc3OC)N(C)[C@H]3[C@@](O)(C(=O)OC)[C@H](OC(C)=O)[C@]5(CC)C=CCN6CC[C@]43[C@@H]65)C2)C1 [vinblastine, reference compound] | 1600 | 8.6 | 1 ± 0.6 | 5 ± 6 | – | – | – | – | – | – | – | – | – | – | – | – | – | –
2 | CC(=O)O[C@H]1C(=O)[C@@]2(C)[C@H]([C@H](OC(=O)c3ccccc3)[C@]3(O)C[C@H](OC(=O)[C@H](O)[C@@H](NC(=O)c4ccccc4)c4ccccc4)C(C)=C1C3(C)C)[C@]1(OC(C)=O)CO[C@@H]1C[C@@H]2O [paclitaxel, reference compound] | – | 24 | 12 ± 7 | – | 24 ± 9 | 12 ± 7 | ~24 | 7.0 ± 2.9 | 4.2 ± 3.6 | 10.2 ± 8.2 | 11.3 ± 2.7 | nanomolar activity | – | – | – | – | – | –
3 | CC[C@H](C)[C@@H]([C@@H](CC(=O)N1CCC[C@H]1[C@H](OC)[C@@H](C)C(=O)N[C@@H](Cc1ccccc1)c1nccs1)OC)N(C)C(=O)[C@@H](NC(=O)[C@H](C(C)C)N(C)C)C(C)C [dolastatin 10, reference compound] | 1400 | – | – | – | – | – | – | – | – | – | – | – | 61 ± 1 | 4600 ± 500 | 0.1 | 0.056 ± 0.025 | – | –
4 | CC[C@]1(O)C[C@H]2CN(CCc3c([nH]c4ccccc34)[C@@](C(=O)OC)(c3cc4c(cc3OC)N(C=O)[C@H]3[C@@](O)(C(=O)OC)[C@H](OC(C)=O)[C@]5(CC)C=CCN6CC[C@]43[C@@H]65)C2)C1 [vincristine, reference compound] | – | – | – | 21 ± 5 | – | – | – | 10.5 ± 10.1 | 4.1 ± 1.9 | 2.6 ± 2.0 | 19.7 ± 10.7 | nanomolar activity | 65 ± 2 | 4400 ± 700 | – | – | (@50 μM: 98 ± 1%) | 29000 ± 5000
